Results as given in PubChem BioAssay (NCI).
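Protocol summary: plate cells (96-well), add compound at 5 concentrations, incubate 48 h, interpolate endpoints linearly. The concentration for full growth arrest is given as TGI.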 Where a SMILES comes first, the peptide text is derived from it. The star is where a group is joined. Boc = CC(C)(C)OC(=O)*; OBn = c1ccc(CO*)cc1; Bn = c1ccc(C*)cc1

Legend:
Test in all cases: NCI anticancer screen, dose series, 48 h
CAKI-1 renal = tested on: CAKI-1 renal
COLO 205 colon = tested on: COLO 205 colon
SNB-19 CNS = tested on: SNB-19 CNS
MALME-3M melanoma = tested on: MALME-3M melanoma
SF-539 CNS = tested on: SF-539 CNS
DU-145 prostate = tested on: DU-145 prostate
SK-OV-3 ovarian = tested on: SK-OV-3 ovarian
HCC-2998 colon = tested on: HCC-2998 colon
MDA-MB-435 = tested on: MDA-MB-435
ACHN renal = tested on: ACHN renal

| Structure (SMILES) | TGI (CAKI-1 renal) | TGI (COLO 205 colon) | TGI (SNB-19 CNS) | TGI (MALME-3M melanoma) | TGI (SF-539 CNS) | TGI (DU-145 prostate) | TGI (SK-OV-3 ovarian) | TGI (HCC-2998 colon) | TGI (MDA-MB-435) | TGI (ACHN renal) |
| --- | --- | --- | --- | --- | --- | --- | --- | --- | --- | --- |
| C=C1CN(C(=O)c2cc3cc(OC)c(OC)c(OC)c3[nH]2)c2cc([N+](=O)[O-])ccc21 | > 100 µM | > 100 µM | > 100 µM | > 100 µM | > 100 µM | > 100 µM | > 100 µM | > 100 µM | > 100 µM | – |
| O=C(O)C(C1NCCS1)N1Cc2ccccc2C1 (centres undefined) | > 100 µM | > 100 µM | > 100 µM | > 100 µM | > 100 µM | > 100 µM | > 100 µM | – | > 100 µM | > 100 µM |
| CC(C)CC(NC(=O)C(CCC(=O)OCc1ccccc1)NC(=O)OC(C)(C)C)C(=O)NC(COCc1ccccc1)C(=O)NC(Cc1ccccc1)C(=O)O (centres undefined) (Boc-E(OBn)LS(Bn)F-OH; configuration not given here) | – | > 100 µM | > 100 µM | > 100 µM | – | – | – | > 100 µM | – | > 100 µM |
| COc1c(Cl)ccc(Cl)c1-c1nnc(-c2c(Cl)c(Cl)c(Cl)c(Cl)c2-c2nc3ccc(C(=O)c4ccccc4)cc3[nH]2)o1 | > 100 µM | 78.2 µM | > 100 µM | > 100 µM | 54 µM | > 100 µM | > 100 µM | – | 68 µM | > 100 µM |
| CC(=O)O/N=C1\C=Cc2c(no[n+]2[O-])C1=O | 35.8 µM | 22 µM | > 100 µM | 28.1 µM | 31.3 µM | 32 µM | – | 38.7 µM | 36 µM | 30.9 µM |
| NC1=CN2c3ccccc3N(CC(=O)N3CCOCC3)C2C=C1 (centres undefined) | > 100 µM | > 100 µM | > 100 µM | > 100 µM | > 100 µM | > 100 µM | > 100 µM | – | > 100 µM | > 100 µM |
| O=C1OS2(OC(=O)c3cccc4cccc2c34)c2ccccc21 (centres undefined) | > 100 µM | > 100 µM | > 100 µM | > 100 µM | > 100 µM | > 100 µM | – | – | > 100 µM | > 100 µM |
| COc1ccc(NC(=O)c2cc(NC(=O)/C=C/c3ccccc3)c(OC)c(OC)c2)cc1 | > 100 µM | > 100 µM | > 100 µM | 99.6 µM | > 100 µM | > 100 µM | > 100 µM | – | 9.38 µM | > 100 µM |
| C(=C/c1ccc2nc(-c3ccc(/C=C/C=N/NC4=NCCCN4)cc3)cn2c1)/C=N/NC1=NCCCN1 | 30.2 µM | > 100 µM | > 100 µM | – | > 100 µM | 41.6 µM | > 100 µM | > 100 µM | > 100 µM | > 100 µM |
| CS(=O)(=O)c1nc(-c2cc3c(c(S(C)(=O)=O)n2)CCC3)cc2c1CCC2 | > 100 µM | > 100 µM | > 100 µM | – | > 100 µM | > 100 µM | > 100 µM | > 100 µM | > 100 µM | > 100 µM |
| S=c1sc2ccccc2n1CN1CCN(Cc2ccccc2)CC1 | > 100 µM | > 100 µM | > 100 µM | – | > 100 µM | > 100 µM | > 100 µM | > 100 µM | > 100 µM | > 100 µM |
| CC1(C)OC2C(CO)OC(/N=C(\NC#N)Oc3ccccc3)C2O1 (centres undefined) | – | > 100 µM | > 100 µM | – | > 100 µM | – | > 100 µM | > 100 µM | – | > 100 µM |
| O=c1[nH]nc(Nc2ccccc2)c2nnn(Cc3ccccc3)c12 | > 100 µM | > 100 µM | > 100 µM | – | > 100 µM | > 100 µM | – | > 100 µM | > 100 µM | > 100 µM |
| NCCCCN(CCCN)C(=O)OCc1ccccc1 | > 100 µM | > 100 µM | > 100 µM | – | > 100 µM | > 100 µM | > 100 µM | > 100 µM | > 100 µM | > 100 µM |
| Nc1nc(-c2ccccc2)cc(-c2ccc(F)cc2)c1-c1ccc(Cl)cc1 | > 100 µM | > 100 µM | > 100 µM | > 100 µM | – | > 100 µM | > 100 µM | > 100 µM | > 100 µM | > 100 µM |
| Cn1c(=O)c2[nH]c(Nc3ccccc3)nc2n(C)c1=O | > 10 µM | > 10 µM | – | > 10 µM | – | > 10 µM | > 10 µM | > 10 µM | > 10 µM | – |
| CSCC[C@@H](NC(=O)[C@H](CC(C)C)NC(=O)C(Cc1cnc[nH]1)NC(=O)CNC(=O)[C@@H](NC(=O)[C@H](C)NC(=O)[C@H](Cc1cn(C=O)c2ccccc12)NC(=O)[C@H](CCC(N)=O)NC(=O)[C@@H](N)CC(N)=O)C(C)C)C(N)=O (some centres undefined) | – | > 100 µM | > 100 µM | > 100 µM | > 100 µM | – | > 100 µM | > 100 µM | – | – |
| O=c1[nH]c(=O)n(COCCO)cc1-c1ccccc1 | > 100 µM | > 100 µM | > 100 µM | > 100 µM | – | > 100 µM | > 100 µM | > 100 µM | > 100 µM | > 100 µM |
| Oc1cccc(-c2cc(=S)ss2)c1 | 45.7 µM | 35.6 µM | 36.4 µM | 32.5 µM | 35 µM | – | 37.7 µM | 32.4 µM | 53.8 µM | 30.1 µM |
| CC1CN=C(c2ccc3c(c2)Cc2cc(C4=NCC(C)N4)ccc2-3)N1 (centres undefined) | > 100 µM | > 100 µM | > 100 µM | 46 µM | – | > 100 µM | > 100 µM | 39.2 µM | 63.9 µM | > 100 µM |
| C=CCCCN1C(=O)C2C3c4ccccc4C(C=O)(c4ccccc43)C2C1=O (centres undefined) | 50.9 µM | 25.2 µM | 32.1 µM | 26.4 µM | – | 26.1 µM | 60.3 µM | 28.5 µM | – | > 100 µM |
| C/C(=N\NC(=S)N/N=C(\C)c1ccccn1)c1ccccn1 | 5.24 µM | > 100 µM | > 100 µM | > 100 µM | 8.83 µM | > 100 µM | > 100 µM | – | > 100 µM | 5.7 µM |
| CC(C)OCC(O)COc1cc(=O)oc2ccccc12 (centres undefined) | > 100 µM | > 100 µM | > 100 µM | > 100 µM | – | > 100 µM | > 100 µM | > 100 µM | > 100 µM | > 100 µM |
| CC12CCC3=C(CSC4=C3CSc3ccccc34)C1=CCCC2=O (centres undefined) | > 100 µM | 45.8 µM | > 100 µM | > 100 µM | > 100 µM | – | – | > 100 µM | – | > 100 µM |
